Legend:
[1] = test system: HepG2 cells (human liver carcinoma cell line); assay: Transfection efficiency on HepG2 cells in vitro (GpLuc luminescence in supernatant); format: cell-based; details: GpLuc mRNA, 24 h (FIG. 2A)
Procedure: This example describes the evaluation of the effect of different polymer-lipid formulations on transfection efficiency on HepG2 cells (human liver carcinoma cell line). As a read-out for transfection efficiency, GpLuc mRNA (SEQ ID NO:14) was used as a cargo.
Successful transfection with the cargo leads to the translation of the luciferase protein and to a secretion of Gp luciferase protein into the cell culture supernatant.
A volume of 0.2 mL HepG2 cells (10.000 cells) were seeded in a 96 well tissue culture plate. After removing the medium from each well, 100 μL RPMI 1640 medium (with 1% Penicillin and 1% Streptomycin, 1% L-Glutamin) was added to each well. Afterwards, HepG2 cells were transfected with 100 μL transfection mix (in triplicates) of polymer-lipid mRNA complexes (prepared according to Example 3) and respective controls (in triplicates), and cells were incubated at 37° C. and 5% CO2 for 90 minutes. […] Twenty-four hours post transfection, 10 μL of supernatant of each well was extracted and used for further luminescence analysis (see below).
A volume of 10 μL supernatant was transferred to a 96 well plate for GpLuc measurement. […] A volume of 100 μL coelenterazine working solution was used as a substrate for GpLuc and measured after 5 seconds in a commercially available microplate reader.

Sol8 cells = assay: Transfection of Sol8 muscle cells in vitro; format: cell-based, Mus musculus; details: very small amount of lipid, in combination with low- and high-charge ratio complexes
Procedure: A volume of 10 μL supernatant was transferred to a 96 well plate for GpLuc measurement. Then, coelenterazine working solution (100 μM) was prepared (1 mL coelenterazine stock solution (4.72 mM in EtOH) in 49 mL phosphate buffered saline supplemented with 5 mM NaCl, pH 7.2). A volume of 100 μL coelenterazine working solution was used as a substrate for GpLuc and measured after 5 seconds in a commercially available microplate reader.
As a read-out for transfection efficiency, […] mRNA (SEQ ID:NO 15) was used as a cargo. A successful transfection with the cargo leads to the translation of the luciferase protein and to a secretion of Gp luciferase protein into the cell culture supernatant.
For a subset on hydrogel, a volume of 0.2 mL Sol8 cells (20.000 cells) were seeded in 96 well glass bottom plates (Softwell Hydrogel coated with collagen (elasticity E=12 kPa)). For another subset without hydrogel, a volume of 0.2 mL with 10.000 Sol8 cells per well were seeded in a 96 well glass bottom plates.
After removing the medium from each well, 100 μL DMEM medium (with 2% horse serum) was added to each well. […] Twenty-four hours post transfection, 10 μL of supernatant of each well was extracted and used for further luminescence analysis, which was performed as described in Example 5.

SMILES: CCCCC/C=C\C/C=C\CCCCCCCCC1(CCCCCCCC/C=C\C/C=C\CCCCC)OCC(CCN(C)C)O1 (stereo not drawn) [KC2, 2,2-dilinoleyl-4-(2-dimethylaminoethyl)[1,3]-dioxolane]
- transfection efficiency compared to PB83 polymer alone ([1]; combination with polymer PB83, high-charge complexes (N/P 4), 1 and 2 nmol/μg RNA lipid): this effect was observable

SMILES: CCCCC/C=C\C/C=C\CCCCCCCCC(CCCCCCCC/C=C\C/C=C\CCCCC)OC(=O)CCCN(C)C [MC3, (6Z,9Z,28Z,31Z)-heptatriaconta-6,9,28,31-tetraen-19-yl-4-(dimethylamino)butanoate]
- transfection efficiency compared to PB83 polymer alone ([1]; combination with polymer PB83, low charge complexes (N/P 0.7), 0.4 and 1 nmol/μg RNA lipid): increase in transfection efficiency

SMILES: CCCCCCCC/C=C\CCCCCCCC(=O)OCC(C[N+](C)(C)C)OC(=O)CCCCCCC/C=C\CCCCCCCC.[Cl-] (stereo not drawn) [N-[1-(2,3-dioleoyloxy)propyl]-N,N,N-trimethylammonium chloride]
- increase of expression levels in Sol8 cells (Sol8 cells): effective

Source: patent US20190381180A1, “HYBRID CARRIERS FOR NUCLEIC ACID CARGO” (CureVac AG, priority 2016, published 2019)
